From the supplement of paper PMC10307832

Legend:
Assay in all cases: relative viability (nuclei count vs DMSO), 5 days (fraction); higher = more cells survive
[1] = compound: CC1=CN=C(N=C1C2=CNC(=C2)C(=O)N[C@H](CO)C3=CC(=CC=C3)Cl)NC4=C(C=C(C=C4)F)Cl [VX-11e]
Procedure, shortened: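 Five library-drug doses spaced by √10 were pinned onto vehicle-anchored 1536-well plates of lung cancer cell lines that had been kept overnight at 37 °C. Cells went 5 days without medium change, then were fixed, permeabilised and Hoechst-stained together, imaged at 4× and counted by MetaXpress. Viability is the ratio of treated-well to vehicle-well nuclei, taken as a median over plates. Plates required control CV below 25% and at least one doubling.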

[2] = compound: CC1=CN=C(N=C1C2=CNC(=C2)C(=O)N[C@H](CO)C3=CC(=CC=C3)Cl)NC4=C(C=C(C=C4)F)Cl [VX-11e] + CC(=O)Nc1cccc(-n2c(=O)n(C3CC3)c(=O)c3c(Nc4ccc(I)cc4F)n(C)c(=O)c(C)c32)c1 [Trametinib] (partner 0.02 µM)
Procedure, shortened: (§1)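 A single step with final 0.05% Triton X-100, 1% formaldehyde and 1 ug/ml Hoechst fixed the cells and stained nuclei 5 days after treatment. Lung cancer cell lines in 1536-well plates had been treated by pin tool the day after seeding with one drug alone or a fixed anchor-drug dose plus five library-drug doses (not always all listed) in √10 steps, and nuclei were counted on 4× images. Relative viability is the ratio of nuclei in treated wells to nuclei in vehicle wells, taken as the median of duplicate plates.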

[3] = compound: CC1=CN=C(N=C1C2=CNC(=C2)C(=O)N[C@H](CO)C3=CC(=CC=C3)Cl)NC4=C(C=C(C=C4)F)Cl [VX-11e] + N=C(N)NC(=N)NCCc1ccccc1 [Phenformin] (partner 250 µM)
Procedure, shortened: as §1

[4] = compound: CC1=CN=C(N=C1C2=CNC(=C2)C(=O)N[C@H](CO)C3=CC(=CC=C3)Cl)NC4=C(C=C(C=C4)F)Cl [VX-11e] + O=C(c1cc(Cc2n[nH]c(=O)c3ccccc23)ccc1F)N1CCN(C(=O)C2CC2)CC1 [Olaparib] (partner 8 µM)
Procedure, shortened: as §1

Row | Cell Line | relative viability ([1]; 0.04 µM) | relative viability ([1]; 0.1265 µM) | relative viability ([1]; 0.4 µM) | relative viability ([1]; 1.265 µM) | relative viability ([1]; 4 µM) | relative viability ([2]; first compound 0.04 µM) | relative viability ([2]; first compound 0.1265 µM) | relative viability ([2]; first compound 0.4 µM) | relative viability ([2]; first compound 1.265 µM) | relative viability ([2]; first compound 4 µM) | relative viability ([3]; first compound 0.04 µM) | relative viability ([3]; first compound 0.1265 µM) | relative viability ([3]; first compound 0.4 µM) | relative viability ([3]; first compound 1.265 µM) | relative viability ([3]; first compound 4 µM) | relative viability ([4]; first compound 0.04 µM) | relative viability ([4]; first compound 0.1265 µM) | relative viability ([4]; first compound 0.4 µM) | relative viability ([4]; first compound 1.265 µM) | relative viability ([4]; first compound 4 µM)
1 | PC-3 [JPC-3] | 0.997 | 1.02 | 0.998 | 0.981 | 0.832 | 0.671 | 0.653 | 0.59 | 0.572 | 0.527 | 0.436 | 0.476 | 0.486 | 0.489 | 0.414 | 1.23 | 1.09 | 1.09 | 1.19 | 0.901
2 | NCI-H2342 | 0.666 | 1.03 | 0.923 | 0.992 | 0.9 | – | 0.741 | 0.765 | 0.858 | 0.823 | 0.438 | 0.614 | 0.534 | 0.782 | 0.583 | – | 0.476 | 0.414 | 0.471 | 0.367
3 | HCC-44 | 1 | 0.941 | 0.907 | 0.915 | 0.733 | 1.05 | 1.07 | 0.92 | 0.888 | 0.607 | 0.211 | 0.172 | 0.115 | 0.119 | 0.139 | 1.02 | 0.893 | 0.897 | 1.05 | 0.93
4 | IA-LM | 0.767 | 0.916 | 0.913 | 0.468 | 0.129 | – | – | – | – | – | – | – | – | – | – | 0.877 | 0.864 | 0.963 | 0.536 | 0.173
5 | NCI-H1734 | 0.835 | 0.858 | 0.635 | 0.632 | 0.411 | 0.619 | 0.675 | 0.536 | 0.557 | 0.375 | 0.369 | 0.391 | 0.323 | 0.231 | 0.209 | 0.632 | 0.601 | 0.607 | 0.542 | 0.365
6 | NCI-H358 | 1.01 | 0.835 | 0.595 | 0.805 | 0.266 | 0.0982 | 0.135 | 0.0751 | 0.121 | 0.112 | 0.276 | 0.288 | 0.07 | 0.263 | 0.142 | 0.594 | 0.525 | 0.525 | 0.441 | 0.163
7 | NCI-H650 | 0.781 | 0.925 | 1.04 | 0.872 | 0.974 | 1.04 | 0.958 | 0.994 | 0.64 | 0.381 | 0.496 | 0.441 | 0.491 | 0.442 | 0.446 | 0.512 | 0.417 | 0.466 | 0.486 | 0.537
8 | LXF-289 | 1.06 | 0.977 | 0.773 | 0.93 | 0.672 | 0.729 | 0.652 | – | 0.626 | 0.498 | 0.578 | 0.5 | 0.16 | 0.463 | 0.365 | 1.15 | 0.997 | – | 1.01 | 0.736
9 | NCI-H838 | 0.965 | 0.913 | 0.842 | 0.852 | 0.736 | 0.457 | 0.505 | 0.513 | 0.484 | 0.455 | 0.539 | 0.604 | 0.17 | 0.445 | 0.379 | 0.785 | 0.802 | 0.702 | 0.738 | 0.671
10 | A-427 | 0.862 | 0.854 | 0.927 | 0.933 | 0.419 | 0.73 | 0.657 | 0.708 | 0.694 | 0.379 | 0.343 | 0.213 | 0.263 | 0.264 | 0.158 | 0.778 | 0.778 | 0.816 | 0.7 | 0.509
11 | COR-L23 | 1.17 | 0.92 | 0.975 | 0.778 | 0.358 | 0.481 | 0.441 | 0.323 | 0.328 | 0.188 | 0.52 | 0.409 | 0.471 | 0.428 | 0.276 | 0.445 | 0.463 | 0.486 | 0.491 | 0.207
12 | NCI-H596 | 0.916 | 0.901 | 0.943 | 0.525 | 0.578 | 0.754 | 0.751 | 0.712 | 0.645 | 0.556 | 0.648 | 0.791 | 0.8 | 0.369 | 0.599 | 0.594 | 0.657 | 0.688 | 0.543 | 0.615
13 | NCI-H2347 | 1.01 | 1.05 | 0.853 | 0.752 | 0.469 | 0.282 | 0.261 | 0.297 | 0.241 | 0.267 | 0.462 | 0.488 | 0.206 | 0.43 | 0.211 | 0.585 | 0.6 | 0.636 | 0.518 | 0.36
14 | NCI-H1648 | 0.978 | 0.958 | 1.54 | 0.694 | 0.624 | – | 0.406 | 0.5 | 0.376 | 0.291 | – | – | – | – | – | – | 0.658 | 0.765 | 0.855 | 0.52
15 | ABC-1 | 0.83 | 0.888 | 0.938 | 0.83 | 0.723 | – | – | – | – | – | 0.205 | 0.277 | 0.224 | 0.243 | 0.281 | 1.22 | – | 0.667 | 0.771 | 0.926
16 | A549 | 0.98 | 0.868 | 0.806 | 0.671 | 0.122 | – | – | – | – | – | 0.151 | 0.155 | 0.0307 | 0.279 | 0.0557 | 0.237 | 0.246 | 0.0406 | 0.184 | 0.0866
17 | NCI-H1299 | 1.01 | 0.981 | 1.03 | 1.03 | 0.49 | – | – | – | – | – | – | – | – | – | – | 1 | 0.967 | 0.968 | 0.92 | 0.519
18 | Calu-6 | 1.08 | 0.978 | 0.975 | 0.513 | 0.163 | – | – | – | – | – | – | – | – | – | – | 0.672 | 0.579 | 0.562 | 0.31 | 0.108
19 | NCI-H1563 | 0.983 | 0.916 | 0.908 | 0.944 | 0.82 | – | – | – | – | – | 0.647 | 0.607 | 0.549 | 0.713 | 0.806 | – | – | – | – | –
